Experimental data published in US20080182853A1, “Methods of neuroprotection by cyclin-dependent kinase inhibition” (priority 2006, published 2008).

Columns and labels:
cortical neurons [1] = conditions: 5 μM H2O2, 6 h; neutral comet assay; FIG. 2A
Description: Single Cell Gel Electrophoresis (Comet assay). DNA damage was assessed using the alkaline or neutral single-cell gel electrophoresis (comet assay) method (Kruman, I. I., et al. 2004. Neuron. 41:549-561; Kruman, I. I., et al. 2002. J Neurosci. 22:1752-176229). We used the neutral comet assay which is specific for detecting DSBs (Wojewodzka, M., et al. 2002. Mutat Res. 518:9-20). Following treatment, neurons were scraped and cell suspensions (˜10,000 cells) were embedded into 0.5% low melting agarose on slides (Trevigen, Gaithersburg, Md.). After treatment with cold lysis buffer (Trevigen) containing 1% Triton X-100 and 10% DMSO, the slides were incubated for 1 h in freshly prepared electrophoresis buffer, 300 mM sodium acetate, 100 mM Tris HCl, pH 8.3 (neutral comet assay) or 300 mM NaOH, 1 mM EDTA, pH>13 (alkaline comet assay). Then electrophoresis was performed at 14V and 60 mA for 1 h (neutral comet assay) or at 25V and 300 mA for 30 min (alkaline comet assay) at 8° C., stained with SYBR green (Trevigen), and analyzed using an Olympus BX51 fluorescent microscope and the comet assay image analysis software (Loats Associates Inc.). […] Images of 50 randomly selected cells were analysed from each slide. […]

cortical neurons [2] = tested on: cortical neurons
Description: Treatment with 1 μM PD 0332991 (obtained from Pfizer) was carried out for 12 h in complete medium; H2O2 was added at the indicated times and doses.
Analysis of neuronal survival and apoptosis. Neuronal viability was assessed by quantifying apoptotic nuclei following the treatments. Cells were fixed and stained with DNA-binding dye propidium iodide (PI) (10 μg/ml; Sigma), and the percentage of cells with apoptotic nuclei was calculated as described previously (Kruman, I. I., et al. 2002. J. Neurosci. 22:1752-1762; Tenneti, L. and S. A. Lipton. 2000. J Neurochem. 74:134-142). Nuclear staining was viewed and photographed using a Zeiss fluorescence microscope. Apoptosis was also determined by immunoblot analysis for activated (cleaved) caspase-3 (polyclonal; 1 μg/ml; Upstate Cell Signaling Solutions), cleaved Mcm3 (polyclonal, 1:200; Santa-Cruz), Mcm2 (BM28; monoclonal; 1:200; BD Biosciences), and fractin (cleaved β-actin; 1:3000; Chemicon) in cellular extracts from corresponding neuronal 5 cultures.

primary cortical neurons = assay: H2O2-induced apoptosis in cultured cortical neurons (apoptotic nuclei count); type: cell-based, rat; conditions: 12 h pretreatment with 1 μM PD 0332991, then 100 μM H2O2 for 18 h; Hoechst 33342; FIG. 4B
Description: All experiments involving the use of animals were approved by the IACUC at the Georgetown University Medical Center, Washington, D.C. Primary cortical cell cultures were established from E18 Sprague-Dawley rats obtained from Jackson Laboratories.
Following dissociation by mild trypsinization and trituration, cells were seeded onto plastic dishes or chamber slides precoated with 0.025 μg/ml poly-L-lysine, at a density of 1.3×10^3 neurons/mm^2 in Neurobasal medium containing B-27 supplement, 1 mM HEPES, 2 mM […] and 0.001% gentamycin sulfate; fresh medium was replaced after 30 minutes.
Analysis of neuronal survival and apoptosis.

tumor = conditions: mice; cited from earlier work
CDK4 and CDK6 = conditions: Fry et al. 2004; cited from earlier work
pRb phosphorylation = pRb phosphorylation by Western blot in cortical neurons; type: cell-based, rat; conditions: 12 h pretreatment with 1 μM PD 0332991, then 100 μM H2O2 for 6 h; FIG. 4A
Description: Immunoblot analyses. For total cell lysates, cortical neurons were lysed in ice-cold buffer consisting of 63 mM Tris, 2 mM EDTA, 2 mM EGTA, 2% sodium dodecyl sulfate, 10% glycerol, and a protease inhibitor cocktail (Sigma), pH 6.0. For the preparation of nuclear lysates (for analysis of cyclin D1 and γ-H2AX), cortical neurons were lysed in ice-cold buffer containing protease inhibitor cocktail (Sigma) and incubated with hydrochloric acid (0.2 M) on ice for 30 min.
As a loading control we used anti-β-actin or anti-glyceraldehyde-3-phosphate dehydrogenase (GAPDH) antibodies.
Protein bands were visualized with horseradish peroxidase-conjugated secondary antibodies (1:3000; Jackson Immunological Research Laboratories Inc.) and enhanced using chemiluminescence (ECL kit, Amersham Corp.). Densitometric analysis of the blots were performed using the Kodak software ID 3.5.3 USB, and the intensity of the signal (normalized to the β-actin signals) was expressed as a ratio of the control signals.

ischemia models = conditions: in vivo; cited from earlier work
neuronal apoptosis = conditions: in vitro; cited from earlier work

Which “DNA damage (comet tails)” value (cortical neurons [1]) does the source give for `OO` [H2O2, hydrogen peroxide] here?
Its value is “significant increase of DNA damage”.

And the “apoptosis of cortical neurons” value (cortical neurons [2]; 5 μM H2O2, by 24 h or 48 h)?
The value was “did not induce apoptosis”.

What about the “apoptotic death of cortical neurons” value (cortical neurons [2]; 100 μM H2O2, FIG. 1) of the same molecule?
The value was “significant apoptotic death beginning by 9 h”.

Which extent of apoptosis (primary cortical neurons) does the source give for `CC(=O)c1c(C)c2cnc(Nc3ccc(N4CCNCC4)cn3)nc2n(C2CCCC2)c1=O` [PD 0332991] here?
The extent of apoptosis was “significant reduction in the extent of apoptosis”.

And the tumor regression (tumor)?
The tumor regression was “effective in causing tumor regression in mice”.

What about the “specificity as inhibitor of CDK4 and CDK6” value (CDK4 and CDK6) of the same molecule?
Its value is “highly specific inhibitor of CDK4 and CDK6”.

And the “phosphorylation of pRb” value (pRb phosphorylation)?
The value was “down-regulates phosphorylation of pRb”.

For `CN1CC[C@H](c2c(O)cc(O)c3c(=O)cc(-c4ccccc4Cl)oc23)[C@H](O)C1` [flavopiridol], which “protection in ischemia models” value (ischemia models) is on record?
The value was “protective”.

And the “prevention of neuronal apoptosis” value (neuronal apoptosis)?
The value was “very potent in preventing neuronal apoptosis in vitro”.
